Values after ≈ are worked out from the molar mass of the structure shown.
Key:
[1] = target: T1, Phosphatidylinositol 4,5-bisphosphate 3-kinase catalytic subunit delta isoform (Homo sapiens, UniProt O00329); assay: Inhibition of PI3Kdelta (unknown origin) using PIP2 as substrate measured after 1 hr in presence of ATP by ADP-glo luminescence assay
T1 sequence (O00329 whole entry): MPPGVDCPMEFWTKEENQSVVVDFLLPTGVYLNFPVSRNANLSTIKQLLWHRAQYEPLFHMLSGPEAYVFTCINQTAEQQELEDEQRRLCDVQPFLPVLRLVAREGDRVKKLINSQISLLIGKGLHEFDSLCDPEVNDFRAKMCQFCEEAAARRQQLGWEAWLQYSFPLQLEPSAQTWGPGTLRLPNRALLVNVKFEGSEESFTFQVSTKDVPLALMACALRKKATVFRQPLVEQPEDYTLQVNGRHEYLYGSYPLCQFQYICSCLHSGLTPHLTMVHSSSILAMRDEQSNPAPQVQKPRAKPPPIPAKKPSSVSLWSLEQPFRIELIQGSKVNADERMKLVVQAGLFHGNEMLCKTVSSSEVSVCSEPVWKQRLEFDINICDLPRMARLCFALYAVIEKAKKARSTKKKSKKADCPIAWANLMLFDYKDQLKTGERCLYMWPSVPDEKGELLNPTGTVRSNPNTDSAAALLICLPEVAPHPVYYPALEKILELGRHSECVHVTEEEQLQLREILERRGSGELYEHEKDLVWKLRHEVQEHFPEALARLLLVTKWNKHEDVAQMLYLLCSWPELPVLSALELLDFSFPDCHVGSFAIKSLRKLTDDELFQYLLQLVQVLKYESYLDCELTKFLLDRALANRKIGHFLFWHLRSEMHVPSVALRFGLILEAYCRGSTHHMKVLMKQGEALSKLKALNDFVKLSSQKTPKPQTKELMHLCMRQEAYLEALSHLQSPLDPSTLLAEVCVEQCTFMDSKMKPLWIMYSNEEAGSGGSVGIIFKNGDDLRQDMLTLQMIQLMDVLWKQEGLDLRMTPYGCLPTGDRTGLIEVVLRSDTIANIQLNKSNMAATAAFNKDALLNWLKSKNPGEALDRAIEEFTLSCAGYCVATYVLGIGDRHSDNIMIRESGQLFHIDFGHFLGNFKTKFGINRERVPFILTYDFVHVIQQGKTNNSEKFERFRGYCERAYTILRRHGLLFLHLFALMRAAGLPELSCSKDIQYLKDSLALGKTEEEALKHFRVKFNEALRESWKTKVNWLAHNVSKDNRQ

[2] = target: Phosphatidylinositol 4,5-bisphosphate 3-kinase catalytic subunit alpha isoform (Homo sapiens, UniProt P42336); assay: Inhibition of PI3Kalpha (unknown origin) using PIP2 as substrate measured after 1 hr in presence of ATP by ADP-glo luminescence assay
Chain of Phosphatidylinositol 4,5-bisphosphate 3-kinase catalytic subunit alpha isoform (Homo sapiens, UniProt P42336) (P42336 whole entry, canonical isoform): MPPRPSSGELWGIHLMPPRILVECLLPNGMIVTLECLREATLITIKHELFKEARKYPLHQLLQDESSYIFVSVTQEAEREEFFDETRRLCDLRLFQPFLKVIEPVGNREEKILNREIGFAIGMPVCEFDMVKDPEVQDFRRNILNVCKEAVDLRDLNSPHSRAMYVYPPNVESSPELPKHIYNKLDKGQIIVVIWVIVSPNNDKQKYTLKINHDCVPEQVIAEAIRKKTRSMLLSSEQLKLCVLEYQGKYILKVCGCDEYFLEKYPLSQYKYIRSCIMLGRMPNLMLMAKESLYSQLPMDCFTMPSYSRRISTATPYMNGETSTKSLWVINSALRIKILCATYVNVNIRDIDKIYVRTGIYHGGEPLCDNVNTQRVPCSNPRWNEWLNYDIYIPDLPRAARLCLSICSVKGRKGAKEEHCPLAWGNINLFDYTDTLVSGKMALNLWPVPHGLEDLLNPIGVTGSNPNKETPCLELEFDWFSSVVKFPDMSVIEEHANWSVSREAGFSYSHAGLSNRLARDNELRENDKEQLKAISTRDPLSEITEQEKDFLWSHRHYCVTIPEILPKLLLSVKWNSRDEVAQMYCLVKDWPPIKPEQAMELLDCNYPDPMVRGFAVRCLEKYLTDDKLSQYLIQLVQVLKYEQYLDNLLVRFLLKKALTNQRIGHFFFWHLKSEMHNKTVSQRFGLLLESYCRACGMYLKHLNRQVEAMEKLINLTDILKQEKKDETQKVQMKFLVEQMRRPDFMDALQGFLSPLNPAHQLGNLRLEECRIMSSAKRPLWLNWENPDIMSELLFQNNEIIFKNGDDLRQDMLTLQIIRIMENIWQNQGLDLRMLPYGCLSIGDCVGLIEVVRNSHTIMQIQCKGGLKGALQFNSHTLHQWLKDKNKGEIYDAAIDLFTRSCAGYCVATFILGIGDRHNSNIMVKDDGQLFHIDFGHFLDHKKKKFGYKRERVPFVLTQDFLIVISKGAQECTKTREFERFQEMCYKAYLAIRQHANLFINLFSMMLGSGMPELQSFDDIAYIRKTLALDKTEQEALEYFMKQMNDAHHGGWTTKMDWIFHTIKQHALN

[3] = target: Phosphatidylinositol 4,5-bisphosphate 3-kinase catalytic subunit alpha isoform (Mus musculus, UniProt P42337); assay: Inhibition of PI3Kalpha in IGF-1 stimulated mouse C2C12 cells incubated for 10 mins by AlphaLISA assay; assay type: cell-based
Chain of Phosphatidylinositol 4,5-bisphosphate 3-kinase catalytic subunit alpha isoform (Mus musculus, UniProt P42337) (P42337 whole entry, canonical isoform): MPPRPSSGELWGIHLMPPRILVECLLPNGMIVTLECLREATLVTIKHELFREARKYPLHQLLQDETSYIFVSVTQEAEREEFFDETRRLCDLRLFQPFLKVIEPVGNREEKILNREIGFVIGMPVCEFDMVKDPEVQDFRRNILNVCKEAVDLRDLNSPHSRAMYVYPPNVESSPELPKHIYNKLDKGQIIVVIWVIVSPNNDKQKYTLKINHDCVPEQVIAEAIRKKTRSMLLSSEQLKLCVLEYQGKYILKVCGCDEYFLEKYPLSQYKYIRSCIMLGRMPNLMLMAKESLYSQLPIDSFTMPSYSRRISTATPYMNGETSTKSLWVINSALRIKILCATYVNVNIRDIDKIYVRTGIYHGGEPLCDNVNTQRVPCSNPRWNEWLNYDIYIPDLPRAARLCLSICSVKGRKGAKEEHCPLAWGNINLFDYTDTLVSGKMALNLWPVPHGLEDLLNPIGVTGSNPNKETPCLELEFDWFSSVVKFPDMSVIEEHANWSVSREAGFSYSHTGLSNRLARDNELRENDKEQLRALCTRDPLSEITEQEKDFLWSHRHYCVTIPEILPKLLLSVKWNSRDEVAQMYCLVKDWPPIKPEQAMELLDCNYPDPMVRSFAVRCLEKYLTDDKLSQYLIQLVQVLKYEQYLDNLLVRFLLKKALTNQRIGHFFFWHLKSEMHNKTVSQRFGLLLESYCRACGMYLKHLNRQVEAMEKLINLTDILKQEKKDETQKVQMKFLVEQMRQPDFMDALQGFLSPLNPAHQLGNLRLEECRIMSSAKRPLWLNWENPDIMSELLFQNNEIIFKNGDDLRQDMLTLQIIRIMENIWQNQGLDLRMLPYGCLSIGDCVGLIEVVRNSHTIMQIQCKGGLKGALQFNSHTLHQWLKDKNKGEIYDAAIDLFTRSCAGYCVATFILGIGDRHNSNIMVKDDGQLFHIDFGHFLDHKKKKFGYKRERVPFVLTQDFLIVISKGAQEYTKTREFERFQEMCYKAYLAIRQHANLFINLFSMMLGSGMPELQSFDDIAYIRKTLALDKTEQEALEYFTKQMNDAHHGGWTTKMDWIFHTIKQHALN

[4] = Solubility of the compound in PBS; assay type: physicochemical
[5] = target: Phosphatidylinositol 4,5-bisphosphate 3-kinase catalytic subunit gamma isoform (Homo sapiens, UniProt P48736); assay: Inhibition of PI3Kgamma (unknown origin) using PIP2 as substrate measured after 1 hr in presence of ATP by ADP-glo luminescence assay
[6] = target: Phosphatidylinositol 4,5-bisphosphate 3-kinase catalytic subunit gamma isoform (Mus musculus, UniProt Q9JHG7); assay: Inhibition of PI3Kgamma in C5a stimulated mouse RAW264.7 cells incubated for 10 mins by AlphaLisa assay; assay type: cell-based
Chain of Phosphatidylinositol 4,5-bisphosphate 3-kinase catalytic subunit gamma isoform (Mus musculus, UniProt Q9JHG7) (Q9JHG7 whole entry, canonical isoform): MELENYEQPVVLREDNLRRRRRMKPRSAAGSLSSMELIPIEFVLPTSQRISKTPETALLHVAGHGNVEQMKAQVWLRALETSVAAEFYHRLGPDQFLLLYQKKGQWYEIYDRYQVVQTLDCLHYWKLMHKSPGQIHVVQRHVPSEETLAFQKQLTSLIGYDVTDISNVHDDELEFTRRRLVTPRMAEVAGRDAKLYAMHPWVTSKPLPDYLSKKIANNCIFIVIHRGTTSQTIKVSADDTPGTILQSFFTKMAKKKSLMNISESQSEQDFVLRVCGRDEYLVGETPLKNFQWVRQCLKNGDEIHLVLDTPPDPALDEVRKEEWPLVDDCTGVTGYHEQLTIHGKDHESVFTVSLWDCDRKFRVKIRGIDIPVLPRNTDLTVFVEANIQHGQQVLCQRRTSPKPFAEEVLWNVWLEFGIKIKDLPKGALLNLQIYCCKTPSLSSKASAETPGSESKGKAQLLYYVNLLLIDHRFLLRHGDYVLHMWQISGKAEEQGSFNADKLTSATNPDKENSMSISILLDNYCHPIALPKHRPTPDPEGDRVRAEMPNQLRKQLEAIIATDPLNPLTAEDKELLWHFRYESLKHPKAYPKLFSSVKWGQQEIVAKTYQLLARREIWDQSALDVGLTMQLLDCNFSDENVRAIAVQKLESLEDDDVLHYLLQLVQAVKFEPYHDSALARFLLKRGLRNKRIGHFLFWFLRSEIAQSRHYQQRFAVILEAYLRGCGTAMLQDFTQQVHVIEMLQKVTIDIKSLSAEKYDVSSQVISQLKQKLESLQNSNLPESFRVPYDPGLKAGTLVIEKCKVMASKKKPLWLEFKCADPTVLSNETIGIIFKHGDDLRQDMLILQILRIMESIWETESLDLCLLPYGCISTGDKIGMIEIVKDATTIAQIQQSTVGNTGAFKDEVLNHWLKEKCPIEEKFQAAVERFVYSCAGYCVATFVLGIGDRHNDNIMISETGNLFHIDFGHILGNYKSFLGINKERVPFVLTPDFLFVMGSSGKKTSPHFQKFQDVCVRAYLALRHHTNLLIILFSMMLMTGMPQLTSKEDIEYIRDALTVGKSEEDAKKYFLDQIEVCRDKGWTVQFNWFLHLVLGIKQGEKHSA

[7] = Microsomal stability in mouse liver microsomes assessed as half life; assay type: ADME, Microsome
[8] = Solubility of the compound in FaSSIF; assay type: physicochemical
[9] = Plasma protein binding in mouse; assay type: ADME, cell-free; conditions: read-out: PPB (converted)
[10] = target: T1, Phosphatidylinositol 4,5-bisphosphate 3-kinase catalytic subunit delta isoform; assay: Inhibition of PI3Kdelta in IgM stimulated human Raji cells incubated for 10 mins by AlphaLISA assay; assay type: cell-based
[11] = Microsomal stability in mouse liver microsomes assessed as intrinsic clearance; assay type: ADME, Microsome; conditions: read-out: CLH
[12] = target: T2, Phosphatidylinositol 4,5-bisphosphate 3-kinase catalytic subunit beta isoform (Homo sapiens, UniProt P42338); assay: Inhibition of PI3Kbeta in LPA stimulated human PC-3 cells incubated for 10 mins by AlphaLISA assay; assay type: cell-based
T2 sequence (P42338 whole entry, canonical isoform): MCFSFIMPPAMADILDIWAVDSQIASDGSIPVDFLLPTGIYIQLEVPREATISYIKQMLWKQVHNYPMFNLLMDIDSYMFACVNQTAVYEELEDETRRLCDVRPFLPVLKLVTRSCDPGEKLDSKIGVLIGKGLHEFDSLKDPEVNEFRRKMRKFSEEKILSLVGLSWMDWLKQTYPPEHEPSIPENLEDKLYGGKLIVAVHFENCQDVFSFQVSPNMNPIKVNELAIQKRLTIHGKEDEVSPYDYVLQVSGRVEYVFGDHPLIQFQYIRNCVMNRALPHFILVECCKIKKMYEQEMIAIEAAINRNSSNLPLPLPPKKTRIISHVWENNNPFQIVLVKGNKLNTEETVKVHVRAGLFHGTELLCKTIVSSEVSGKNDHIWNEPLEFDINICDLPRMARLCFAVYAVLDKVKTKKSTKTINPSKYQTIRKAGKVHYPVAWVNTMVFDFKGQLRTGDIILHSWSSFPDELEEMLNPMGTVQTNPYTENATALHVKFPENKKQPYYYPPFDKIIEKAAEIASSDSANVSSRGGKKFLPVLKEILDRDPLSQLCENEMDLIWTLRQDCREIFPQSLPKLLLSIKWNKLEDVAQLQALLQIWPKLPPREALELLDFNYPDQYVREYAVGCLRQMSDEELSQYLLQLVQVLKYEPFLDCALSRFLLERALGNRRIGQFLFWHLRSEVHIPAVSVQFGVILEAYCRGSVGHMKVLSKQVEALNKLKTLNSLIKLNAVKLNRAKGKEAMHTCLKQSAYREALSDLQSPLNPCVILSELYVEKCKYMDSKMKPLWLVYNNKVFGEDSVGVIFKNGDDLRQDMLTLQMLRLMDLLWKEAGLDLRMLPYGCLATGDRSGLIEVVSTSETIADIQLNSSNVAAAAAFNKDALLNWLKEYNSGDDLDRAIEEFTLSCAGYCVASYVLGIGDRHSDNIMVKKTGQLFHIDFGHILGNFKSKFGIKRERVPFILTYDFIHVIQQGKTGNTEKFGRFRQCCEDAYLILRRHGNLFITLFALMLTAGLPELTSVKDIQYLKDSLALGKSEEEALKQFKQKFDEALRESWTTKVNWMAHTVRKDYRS

[13] = target: Serine/threonine-protein kinase mTOR (Homo sapiens, UniProt P42345); assay: Inhibition of mTOR (unknown origin)
[14] = target: T2, Phosphatidylinositol 4,5-bisphosphate 3-kinase catalytic subunit beta isoform; assay: Inhibition of PI3Kbeta (unknown origin) using PIP2 as substrate measured after 1 hr in presence of ATP by ADP-glo luminescence assay

SMILES	IC50 [1]	IC50 [2]	further results
CCC(=O)N1CC[C@H](Nc2ncnc3sc(-c4cnc(OC)c(F)c4)cc23)C1	54 nM	3410 nM	
COc1cc(-c2cc3c(N[C@H]4CCN(C(=O)C5CCC5)C4)ncnc3s2)cnc1OC	2.2 nM	172 nM	IC50 [3]: 20800 nM; solubility [4]: 5.67 µM (≈ 2.49 µg/mL); IC50 [5]: 1990 nM; IC50 [6]: 4780 nM; half-life [7]: 15.9 min; solubility [8]: 39.7 µM (≈ 17.4 µg/mL); fraction unbound [9]: 0.01; IC50 [10]: 33.7 nM; CLint scaled [11]: 342 mL/min/kg; IC50 [12]: 4210 nM; IC50 [13]: > 10000 nM; IC50 [14]: 1370 nM
COc1cc(-c2cc3c(N[C@H]4CCN(C(=O)C5CCCCC5)C4)ncnc3s2)cnc1OC	30 nM	718 nM	
COc1cc(-c2cc3c(N[C@H]4CCN(C(=O)C(C)C)C4)ncnc3s2)cnc1OC	55 nM	241 nM	
CCC(=O)N1CC[C@H](Nc2ncnc3sc(-c4cnc(OC)c(C#N)c4)cc23)C1	60 nM	4030 nM	
COc1cc(-c2cc3c(O[C@H]4CCN(C(=O)C(C)C)C4)ncnc3s2)cnc1OC	10 nM	411 nM	
CCC(=O)N1CC[C@H](Oc2ncnc3sc(-c4cnc(OC)c(F)c4)cc23)C1	97.5 nM	7860 nM	
COc1cc(-c2cc3c(O[C@H]4CCN(C(=O)C5CC5)C4)ncnc3s2)cnc1OC	10 nM	322 nM	
CCC(=O)N1CC[C@H](Oc2ncnc3sc(-c4cnc(OC)c(OC)c4)cc23)C1	11 nM	428 nM	

More lines, in order of falling IC50 [1], values ahead:

IC50 [1]	IC50 [2]	SMILES	further results
103 nM	2060 nM	CCC(=O)N1CC[C@H](Nc2ncnc3sc(-c4cnc(OC)c(C(F)(F)F)c4)cc23)C1	
53 nM	793 nM	COc1cc(-c2cc3c(N[C@H]4CCN(C(=O)C(C)(C)C)C4)ncnc3s2)cnc1OC	
45 nM	6290 nM	CCC(=O)N1CC[C@H](Nc2ncnc3sc(-c4cnc(OC)c(C)c4)cc23)C1	
38 nM	1210 nM	CCC(=O)N1CC[C@H](Nc2ncnc3sc(-c4cncc(S(C)(=O)=O)c4)cc23)C1	
3.3 nM	392 nM	COc1cc(-c2cc3c(O[C@H]4CCN(C(=O)C5CCC5)C4)ncnc3s2)cnc1OC	IC50 [3]: 28300 nM; solubility [4]: 1.41 µM (≈ 0.621 µg/mL); IC50 [5]: 2860 nM; IC50 [6]: 5990 nM; half-life [7]: 5.09 min; solubility [8]: 5.89 µM (≈ 2.59 µg/mL); fraction unbound [9]: 0.011; IC50 [10]: 75.7 nM; CLint scaled [11]: 1070 mL/min/kg; IC50 [12]: 6200 nM; IC50 [13]: > 10000 nM; IC50 [14]: 1960 nM

— ChEMBL document CHEMBL5154925, “Design and Optimization of Thienopyrimidine Derivatives as Potent and Selective PI3Kδ Inhibitors for the Treatment of B-Cell Malignancies” (J Med Chem, 2022)
